Experimental data as given in PMC4861708 (Frontiers in Cell and Developmental Biology, 2016).
Values after ≈ are worked out from the molar mass of the structure shown. Where a SMILES comes first, the peptide text is derived from it. [ ]: non-standard residue; d: D form. The star is where a group is joined. Orn(α-tetramethylguanidino) = CN(C)C(=N[C@@H](CCCN)C(=O)*)N(C)C; Orn = NCCC[C@H](N)C(=O)O

Experiments:
[1] = test system: K. pneumoniae DSM 681 (ATCC 10031); type: cell-based, Klebsiella pneumoniae; conditions: DSM 681, 24 h
Method: (§1) MICs of P. aeruginosa strains DSM 1117 (ATCC 27853), DSM 3227 (ATCC 19429), and DSM 9644 were determined in a microdilution broth assay using 50 or 100% MHB (11.5 and 23 g/L MHB, respectively) whereas MICs of E. coli DSM 1103 (ATCC 25922) and K. pneumoniae DSM 681 (ATCC 10031) were determined in TSB (30 g/L TSB). Peptides (1 g/L in water) were serially two-fold diluted in a 96-well microtiter plate (PS, sterile, flat bottom) in 50 μL of the corresponding medium to final concentrations of 512–4 μg/mL. Bacteria were grown in nutrient broth overnight and diluted to a cell concentration of 1.5 × 10^7 cells/mL in the corresponding medium. Cell densities were determined by using the McFarland standard as reference. An aliquot (50 μL) of the cell culture was added to each well and incubated (37°C, 24 h). The OD595 was determined in a SpectraMax 340PC (Molecular Devices, Sunnyvale, USA). Additionally, MIC values were also determined for high bacteria densities (5 × 10^8 cells/mL) corresponding to the conditions used for TEM, as described above.

in vitro [2] = conditions: mouse, mouse serum, Half-life time mouse serum, 37°C
Method: Peptide solutions (1 g/L) were added to mouse serum to obtain final concentrations of 70 mg/L peptide and incubated under constant shaking at 37°C. After 0, 1, 2, 3, and 6 h aliquots (95 μL) were precipitated with aqueous TCA (25 μL, 15% w/v), incubated for 10 min on ice, and centrifuged (5 min, 12,000 × g, Eppendorf mini spin centrifuge). An aliquot of the supernatant (95 μL) was neutralized with sodium hydroxide (8 μL, 1 mol/L) and diluted with aqueous acetonitrile solution (3% acetonitrile, 0.1% TFA; 200 μL). Peptides were quantified by the peak areas obtained by analytical RP-HPLC on a Jupiter C18-column (ID: 2 mm) using a linear aqueous acetonitrile gradient with 0.1% (v/v) TFA (absorbance recorded at 214 nm). Peak areas of all time points were normalized to the initial peak area obtained after “0 min incubation” (= 100%). Experiments were carried out as triplicates in parallel and half-life times were calculated using GraphPad Prism 5.0.

[3] = test system: E. coli DSM 1103 (ATCC 25922); type: cell-based, Escherichia coli; conditions: DSM 1103, 24 h
Method: as §1

in vitro [4] = type: cell-based; conditions: human
Method: (§2) Human embryonic kidney (HEK293) and HeLa cells were cultured in Dulbecco's modified Eagle's/Ham's F-12 medium [DMEM/F-12 (1:1)] supplemented with FBS (10% v/v), penicillin, and streptomycin (1000 units each). Primary rat cardiomyocytes (Innoprot, Elexalde Derio, Spain) were grown in medium supplemented with FBS (20% v/v), horse serum (5% v/v), L-glutamine (2 mmol/L), sodium pyruvate (2 mmol/L), MEM non-essential amino acids (Gibco, 0.1 mmol/L), penicillin, and streptomycin (1000 units each). Surfaces for cardiomyocyte growth were coated with attachment factor first. Cells (20,000/well) were seeded into a 96-well plate (PS, sterile, flat bottom), incubated for 24 h (37°C, 5% CO2), and washed twice with PBS (100 μl/well) prior to adding colorless medium (88 μL) and peptide solution (12 μL; 5, 2.5, 1.25, […], and 0.625 g/L in PBS). Positive controls were triton X-100 (1%, v/v) and melittin (60 mg/L) as lytic peptide, whereas PBS (12%, v/v) served as negative control. After an incubation period of 24 h, supernatant (25 μL) was mixed with lactate dehydrogenase (LDH) substrate (175 μL; 0.57 mmol/L sodium pyruvate, 0.24 mmol/L NADH disodium salt, 32 mmol/L potassium dihydrogen phosphate, 66 mmol/L dipotassium phosphate) in 96-well plates (PS, sterile, flat bottom). Absorbance was recorded at 340 nm every 3 min for 30 min on the Paradigm microplate reader. Due to the total release of LDH upon triton X-100 treatment, the control contained high LDH concentrations resulting in a fast substrate turnover that was only linear for the first 6 min.
(§3) The MTT cell viability assay relied on the same cell culture. Remaining medium was replaced by a mixture of fresh colorless medium (100 μL) and MTT (10 μL; 5 g/L in PBS) and incubated for 4 h (37°C, 5% CO2). A solution of sodium dodecyl sulfate (100 μL; 10%, w/v) dissolved in hydrochloric acid (10 mmol/L) was added, incubated (16 h), and the absorbance recorded at 590 nm relative to the reference at 650 nm (Paradigm microplate reader). The relative cell viability was calculated by [(ODPeptide − ODTriton)/(ODPBS − ODTriton)] × 100% and half-maximal inhibitory concentrations (IC50) with an Excel-template from cell biology protocols (www.sciencegateway.org/ protocols/cellbio/drug/hcic50.htm). For statistical analysis an unpaired t-test was applied using GraphPad Prism 5.0.

HeLa cells = assay: in vitro; type: cell-based; conditions: 24 h
Method: as §2, §3

[5] = test system: Primary rat cardiomyocytes; assay: in vitro; type: cell-based; conditions: 24 h
Method: as §2, §3

in vitro [6] = type: cell-based, human; conditions: human
Method: as §2, §3

HEK293 cells = assay: in vitro; type: cell-based, human; conditions: 24 h
Method: as §2, §3

CC[C@H](C)[C@H](NC(=O)[C@H](CCCN)N=C(N(C)C)N(C)C)C(=O)N[C@@H](CCCN)C(=O)N[C@H](C(=O)N[C@@H](CCCN)C(=O)N[C@H](C(=O)N[C@@H](CCCN)C(=O)N[C@@H](CCCNC(=N)N)C(=O)N1CCC[C@H]1C(=O)N[C@H](C(=O)N[C@@H](Cc1ccc(O)cc1)C(=O)N[C@@H](CCCN)C(=O)N1CCC[C@H]1C(=O)N[C@@H](CCCNC(=N)N)C(=O)N1CCC[C@H]1C(=O)N[C@@H](CCCNC(=N)N)C(=O)N1CCC[C@H]1C(=O)N1CCC[C@H]1C(=O)N[C@@H](Cc1c[nH]cn1)C(=O)N1CCC[C@H]1C(=O)N[C@@H](CCCNC(=N)N)C(=O)N[C@@H](CC(C)C)C(=O)O)C(C)C)[C@@H](C)CC)[C@@H](C)CC [Api796, GuO(IO)3RPVYOPRPRPPHPRL] ({Orn(α-tetramethylguanidino)}-I[Orn]I[Orn]I[Orn]RPVY[Orn]PRPRPPHPRL-OH)
MIC K. pneumoniae DSM 681 [1]: 16 µg/mL (≈ 5.83 µM)
half-life at 70 mg/L (in vitro [2]): 4.15 h
MIC E. coli ATCC 25922 [3]: 8 µg/mL (≈ 2.91 µM)
viability at 24 h, 0.6 g/L (in vitro [4]): 61 ± 14%
IC50 on cell viability (HeLa cells): >600 µg/mL
IC50 on cell viability [5]: >600 µg/mL
viability at 24 h, 0.6 g/L (in vitro [6]): ~60%
IC50 on cell viability (HEK293 cells): >600 µg/mL
